Where “and” joins values, the source holds several entries; their conditions need not be identical. Equal values may be shown once. Inconclusive results and toxic doses are left out.
Test system: L1210 leukemia ip in BDF1 mice, survival T/C
Assay: NCI In Vivo Anticancer Drug Screen. Data for tumor model L1210 Leukemia (intraperitoneal) in B6D2F1 (BDF1) mice
Details: endpoint: mean survival time, higher = longer survival
Procedure, shortened: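 Transplanted-tumor mice were given test agent; controls received vehicle only. Survival readings from the two groups were divided (treated over control).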

[1] = dose: 100.0 mg/kg/injection, schedule: Q01DX001 (ip), vehicle: Klucel (hydroxypropylcellulose) (HPC)
[2] = dose: 200.0 mg/kg/injection, schedule: Q01DX001 (ip), vehicle: Klucel (hydroxypropylcellulose) (HPC)
[3] = dose: 100.0 mg/kg/injection, schedule: Q01DX009 (ip), vehicle: Klucel (hydroxypropylcellulose) (HPC)
[4] = dose: 100.0 mg/kg/injection, schedule: Q04DX003 (ip), vehicle: saline with Tween-80
[5] = dose: 200.0 mg/kg/injection, schedule: Q01DX009 (ip), vehicle: Klucel (hydroxypropylcellulose) (HPC)
[6] = dose: 200.0 mg/kg/injection, schedule: Q04DX003 (ip), vehicle: saline with Tween-80
[7] = dose: 400.0 mg/kg/injection, schedule: Q04DX003 (ip), vehicle: saline with Tween-80
[8] = dose: 100.0 mg/kg/injection, schedule: Q04DX003 (ip), vehicle: Klucel (hydroxypropylcellulose) (HPC)
[9] = dose: 200.0 mg/kg/injection, schedule: Q04DX003 (ip), vehicle: Klucel (hydroxypropylcellulose) (HPC)
[10] = dose: 400.0 mg/kg/injection, schedule: Q04DX003 (ip), vehicle: Klucel (hydroxypropylcellulose) (HPC)
[11] = dose: 100.0 mg/kg/injection, schedule: Q04DX002 (ip), vehicle: gum acacia
[12] = dose: 100.0 mg/kg/injection, schedule: Q01DX001 (ip), vehicle: saline
[13] = dose: 200.0 mg/kg/injection, schedule: Q01DX001 (ip), vehicle: saline
[14] = dose: 25.0 mg/kg/injection, schedule: Q01DX009 (ip), vehicle: Klucel (hydroxypropylcellulose) (HPC)
[15] = dose: 25.0 mg/kg/injection, schedule: Q04DX003 (ip), vehicle: Klucel (hydroxypropylcellulose) (HPC)
[16] = dose: 50.0 mg/kg/injection, schedule: Q04DX003 (ip), vehicle: Klucel (hydroxypropylcellulose) (HPC)

Cc1ccc(C(=O)Nc2ncn(C3CC(O)C(CO)O3)c(=O)n2)cc1 (stereo not drawn)
T/C (dose: 6.25 mg/kg/injection, schedule: Q04DX003 (ip), vehicle: saline with Tween-80): 114 % of control | T/C (dose: 12.5 mg/kg/injection, schedule: Q01DX003 (ip), vehicle: saline with Tween-80): 245 % of control | T/C (dose: 12.5 mg/kg/injection, schedule: Q01DX005 (ip), vehicle: saline): 187 % of control | T/C (dose: 12.5 mg/kg/injection, schedule: Q04DX003 (ip), vehicle: saline with Tween-80): 172 % of control | T/C (dose: 25.0 mg/kg/injection, schedule: Q01DX003 (ip), vehicle: saline with Tween-80): 152 % of control | T/C (dose: 25.0 mg/kg/injection, schedule: Q04DX003 (ip), vehicle: saline with Tween-80): 156 % of control and 185 % of control | T/C (dose: 50.0 mg/kg/injection, schedule: Q01DX003 (ip), vehicle: saline with Tween-80): 111 % of control | T/C (dose: 50.0 mg/kg/injection, schedule: Q01DX005 (ip), vehicle: saline): 90 % of control

CNc1ncnc(Cl)c1N
T/C [1]: 103 % of control | T/C [2]: 107 % of control

[CH3][Pb]([CH3])([CH3])[O]C(=O)C(F)(F)F
T/C (dose: 12.5 mg/kg/injection, schedule: Q04DX002 (ip), vehicle: saline): 90 % of control

Cc1ccc(C(=O)OCc2ccc3c(c2)OCO3)cc1
T/C (dose: 222.0 mg/kg/injection, schedule: Q01DX Z (ip), vehicle: methylcellulose (MC)): 97 % of control | T/C (dose: 333.0 mg/kg/injection, schedule: Q01DX Z (ip), vehicle: methylcellulose (MC)): 89 % of control | T/C (dose: 500.0 mg/kg/injection, schedule: Q01DX Z (ip), vehicle: methylcellulose (MC)): 89 % of control

Cc1ccc(OCCBr)cc1
T/C [3]: 93 % of control | T/C [4]: 100 % of control | T/C [5]: 101 % of control | T/C [6]: 107 % of control | T/C [7]: 98 % of control

O=C(CN1CCCCC1)c1ccc2oc3ccccc3c2c1
T/C [8]: 96 % of control | T/C [9]: 96 % of control | T/C [10]: 87 % of control

CC12CC(Br)C(Br)CC1(C)O2 (stereo not drawn)
T/C (dose: 25.0 mg/kg/injection, schedule: Q04DX002 (ip), vehicle: gum acacia): 96 % of control | T/C (dose: 50.0 mg/kg/injection, schedule: Q04DX002 (ip), vehicle: gum acacia): 100 % of control | T/C [11]: 104 % of control

CCNc1cc(Cl)nc(N)n1
T/C (dose: 100.0 mg/kg/injection, schedule: Q01DX009 (ip), vehicle: saline with Tween-80): 92 % of control | T/C [4]: 105 % of control | T/C (dose: 200.0 mg/kg/injection, schedule: Q01DX009 (ip), vehicle: saline with Tween-80): 101 % of control | T/C [6]: 98 % of control | T/C (dose: 400.0 mg/kg/injection, schedule: Q01DX009 (ip), vehicle: saline with Tween-80): 104 % of control | T/C [7]: 104 % of control

c1ccc(-c2cc3ccncc3c3ccccc23)cc1
T/C (dose: 100.0 mg/kg/injection, schedule: Q04DX003 (ip), vehicle: water): 102 % of control | T/C (dose: 200.0 mg/kg/injection, schedule: Q04DX003 (ip), vehicle: water): 96 % of control | T/C (dose: 400.0 mg/kg/injection, schedule: Q04DX003 (ip), vehicle: water): 96 % of control

CCC(C)(NC(N)=O)c1ccccc1 (stereo not drawn)
T/C [12]: 101 % of control | T/C [13]: 104 % of control

CCOC(=O)c1ccc(O)c(NC(C)=O)c1
T/C [3]: 95 % of control | T/C [8]: 95 % of control | T/C [5]: 94 % of control | T/C [9]: 100 % of control | T/C (dose: 400.0 mg/kg/injection, schedule: Q01DX009 (ip), vehicle: Klucel (hydroxypropylcellulose) (HPC)): 94 % of control | T/C [10]: 91 % of control

CN(Cc1cnc2nc(N)nc(N)c2n1)c1ccc(C(=O)NC(CCC(=O)OC(C)(C)C)C(=O)OC(C)(C)C)cc1 (stereo not drawn)
T/C [14]: 124 % of control | T/C (dose: 50.0 mg/kg/injection, schedule: Q01DX009 (ip), vehicle: Klucel (hydroxypropylcellulose) (HPC)): 88 % of control | T/C [8]: 159 % of control

C[n+]1ccc(/C=C/c2ccc(O)c3ccccc23)c2ccccc21
T/C (dose: 75.0 mg/kg/injection, schedule: Q01DX001 (ip), vehicle: carboxymethylcellulose (CMC)): 100 % of control | T/C (dose: 150.0 mg/kg/injection, schedule: Q01DX001 (ip), vehicle: carboxymethylcellulose (CMC)): 100 % of control | T/C (dose: 300.0 mg/kg/injection, schedule: Q01DX001 (ip), vehicle: carboxymethylcellulose (CMC)): 115 % of control

CCCCCCCc1cc2ccccc2c2c(N)nc(N)nc12
T/C (dose: 12.0 mg/kg/injection, schedule: Q04DX003 (ip), vehicle: Klucel (hydroxypropylcellulose) (HPC)): 105 % of control | T/C [15]: 93 % of control | T/C [16]: 98 % of control | T/C [1]: 90 % of control | T/C [8]: 107 % of control | T/C [2]: 96 % of control

O=C(O)c1ccc(/C=N\Nc2ccccc2)cc1
T/C [16]: 95 % of control | T/C [8]: 106 % of control | T/C [9]: 100 % of control | T/C [10]: 97 % of control

O=C(Nc1c(Oc2ccc(Cl)cc2)ccc(Cl)c1S(=O)(=O)O)Nc1c(Oc2ccc(Cl)cc2)ccc(Cl)c1S(=O)(=O)O
T/C (dose: 100.0 mg/kg/injection, schedule: Q01DX001 (ip), vehicle: acetone): 95 % of control | T/C (dose: 100.0 mg/kg/injection, schedule: Q04DX003 (ip), vehicle: saline): 95 % of control | T/C (dose: 200.0 mg/kg/injection, schedule: Q04DX003 (ip), vehicle: saline): 96 % of control | T/C (dose: 400.0 mg/kg/injection, schedule: Q01DX001 (ip), vehicle: acetone): 92 % of control

COc1ccc2c(c1)CCN(C1=C(C)C(=O)CC1)C2CC(=O)O (stereo not drawn)
T/C [12]: 104 % of control | T/C [13]: 101 % of control | T/C (dose: 400.0 mg/kg/injection, schedule: Q01DX001 (ip), vehicle: saline): 90 % of control

c1ccc([Se]c2ccccn2)nc1
T/C (dose: 12.5 mg/kg/injection, schedule: Q01DX009 (ip), vehicle: Klucel (hydroxypropylcellulose) (HPC)): 101 % of control | T/C (dose: 12.5 mg/kg/injection, schedule: Q04DX003 (ip), vehicle: Klucel (hydroxypropylcellulose) (HPC)): 105 % of control | T/C (dose: 25.0 mg/kg/injection, schedule: Q01DX001 (ip), vehicle: Klucel (hydroxypropylcellulose) (HPC)): 102 % of control | T/C [14]: 98 % of control | T/C [15]: 103 % of control | T/C (dose: 50.0 mg/kg/injection, schedule: Q01DX001 (ip), vehicle: Klucel (hydroxypropylcellulose) (HPC)): 110 % of control | T/C [16]: 107 % of control and 110 % of control | T/C [1]: 105 % of control

O=C(NCc1ccc(S(=O)(=O)F)cc1)Oc1ccc([N+](=O)[O-])cc1
T/C (dose: 25.0 mg/kg/injection, schedule: Q01DX009 (ip), vehicle: other): 100 % of control | T/C (dose: 50.0 mg/kg/injection, schedule: Q01DX009 (ip), vehicle: other): 88 % of control | T/C (dose: 100.0 mg/kg/injection, schedule: Q01DX009 (ip), vehicle: other): 98 % of control and 87 % of control

C=NNC(=O)c1ccncc1
T/C [4]: 89 % of control | T/C [6]: 94 % of control | T/C [7]: 88 % of control

O=S(=O)(c1cc(Cl)ccc1Cl)N1CCc2ccccc2C1
T/C [11]: 104 % of control | T/C (dose: 200.0 mg/kg/injection, schedule: Q04DX002 (ip), vehicle: gum acacia): 93 % of control | T/C (dose: 400.0 mg/kg/injection, schedule: Q04DX002 (ip), vehicle: gum acacia): 93 % of control

O=C(CCCC(=O)N/N=C/c1ccc(Cl)cc1)N/N=C\c1ccc(Cl)cc1
T/C (dose: 50.0 mg/kg/injection, schedule: Q01DX001 (ip), vehicle: other): 102 % of control | T/C (dose: 200.0 mg/kg/injection, schedule: Q01DX001 (ip), vehicle: other): 91 % of control | T/C (dose: 400.0 mg/kg/injection, schedule: Q01DX001 (ip), vehicle: other): 91 % of control

c1ccc(-c2ccn(C3CCCCC3)c2-c2ccccc2)cc1
T/C (dose: 100.0 mg/kg/injection, schedule: Q01DX001 (ip), vehicle: saline with Tween-80): 87 % of control | T/C (dose: 200.0 mg/kg/injection, schedule: Q01DX001 (ip), vehicle: saline with Tween-80): 91 % of control | T/C (dose: 400.0 mg/kg/injection, schedule: Q01DX001 (ip), vehicle: saline with Tween-80): 92 % of control

NN=O
T/C [12]: 97 % of control | T/C [13]: 101 % of control

CCOC(=O)CCC(NC(=O)c1ccc(I)cc1)C(=O)OCC (stereo not drawn)
T/C [8]: 94 % of control | T/C [9]: 96 % of control | T/C [10]: 102 % of control
